IC50 data for 17 compounds are collected here from patent US12344603B2 (Genentech, Inc., priority 2020, dated 2025).

The structures appear in SMILES notation. Counter-ions that a name gives are not always drawn.

Sequence of IRE1α (O75460 547-977 D688N): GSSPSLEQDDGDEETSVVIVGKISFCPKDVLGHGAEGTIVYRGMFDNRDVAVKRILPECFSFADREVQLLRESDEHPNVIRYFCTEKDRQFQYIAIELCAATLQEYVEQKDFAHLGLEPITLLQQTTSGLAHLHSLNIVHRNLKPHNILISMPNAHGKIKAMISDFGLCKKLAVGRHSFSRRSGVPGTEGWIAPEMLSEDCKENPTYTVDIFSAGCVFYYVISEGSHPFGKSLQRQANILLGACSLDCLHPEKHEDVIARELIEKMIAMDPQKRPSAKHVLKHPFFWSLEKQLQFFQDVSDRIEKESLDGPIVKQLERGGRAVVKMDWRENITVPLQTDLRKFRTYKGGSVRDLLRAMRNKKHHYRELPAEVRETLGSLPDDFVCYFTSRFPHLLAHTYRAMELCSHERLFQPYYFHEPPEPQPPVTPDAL

The target in the experiment is IRE1α (Homo sapiens (Human), UniProt O75460, D688N). In words: IRE1α TR-FRET competition binding assay (IRE1α HTRF). Conditions: TR-FRET competition binding to kinase domain of IRE1α. On the procedure:
IRE1α TR-FRET Competition Binding Assay. The affinity of compound binding to the kinase domain of IRE1α was determined using a time-resolved fluorescence resonance energy transfer (TR-FRET) competition assay.
The purified protein (final concentration 0.25 nM) was pre-incubated with anti-His Europium labeled antibody (Life Technologies PV5596, final concentration 2 nM) for one hour at 4° C. in TR-FRET Assay Buffer (50 mM HEPES, pH 7.5, 10 mM MgCl2, 0.083 mM Brij 35, 1 mM DTT, and 0.1% bovine gamma globulin) prior to addition to test compounds. An Alexa fluor 647-labeled probe based on an ATP competitive inhibitor was added to a final concentration of 2 nM. Reactions were carried out for one hour at room temperature in a final volume of 20 μL in 384 well white ProxiPlates (Perkin Elmer 6008289). Binding of the probe to the IRE1α protein was detected in an Envision instrument (PerkinElmer) equipped with a TRF laser option and a LANCE/Delfia Dual/Bias D400/D630 mirror (Ex 347 nm, 1st Em 665 nm, 2nd Em 615 nm).
For orientation: TR-FRET usually uses a lanthanide donor and a delayed reading to cut background.
`CCn1c(=O)c(-c2ccc(NS(=O)(=O)CCC(F)(F)F)c(F)c2F)cc2cnc(N[C@@H]3CNC[C@@H](F)C3)nc21` [Compound 14, N-(4-(8-Ethyl-2-(((3S,5S)-5-fluoropiperidin-3-yl)amino)-7-oxo-7,8-dihydropyrido[2,3-d]pyrimidin-6-yl)-2,3-difluorophenyl)-3,3,3-trifluoropropane-1-sulfonamide] gave an IC50 of 5 nM.

The compound `CCn1c(=O)c(-c2cc(F)c(NS(=O)(=O)Cc3ccccc3)c(F)c2F)cc2cnc(N[C@@H]3CNC[C@@H](F)C3)nc21` [Compound 15, N-(4-(8-Ethyl-2-(((3S,5S)-5-fluoropiperidin-3-yl)amino)-7-oxo-7,8-dihydropyrido[2,3-d]pyrimidin-6-yl)-2,3,6-trifluorophenyl)-1-phenylmethanesulfonamide] yielded an IC50 of 0.21 nM. Compared with the last compound, the IC50 is about 24-fold lower.

Regarding `CC(C)n1c(=O)c(-c2cccc(NS(=O)(=O)Cc3ccccc3)c2F)cc2cnc(N[C@H]3CCCNC3)nc21` [Compound 16, (S)—N-(2-Fluoro-3-(8-isopropyl-7-oxo-2-(piperidin-3-ylamino)-7,8-dihydropyrido[2,3-d]pyrimidin-6-yl)phenyl)-1-phenylmethanesulfonamide], the IC50 came out at 5.8 nM.

Regarding `CC(C)n1c(=O)c(-c2ccc(F)c(NS(=O)(=O)Cc3ccccc3)c2)cc2cnc(N[C@H]3CCCNC3)nc21` [Compound 17, (S)—N-(2-Fluoro-5-(8-isopropyl-7-oxo-2-(piperidin-3-ylamino)-7,8-dihydropyrido[2,3-d]pyrimidin-6-yl)phenyl)-1-phenylmethanesulfonamide hydrochloride], the IC50 stood at 11 nM.

`O=c1c(-c2ccc(NS(=O)(=O)Cc3ccccc3)c(F)c2F)cc2cnc(N[C@@H]3CNC[C@@H](F)C3)nc2n1C1CCCC1` [Compound 18, N-(4-(8-Cyclopentyl-2-(((3S,5S)-5-fluoropiperidin-3-yl)amino)-7-oxo-7,8-dihydropyrido[2,3-d]pyrimidin-6-yl)-2,3-difluorophenyl)-1-phenylmethanesulfonamide] showed an IC50 of 0.41 nM. Compared with the last compound, the IC50 is about 27-fold lower.

In the case of `CC(C)n1c(=O)c(-c2ccc(F)c(NS(=O)(=O)Cc3ccccc3)c2F)cc2cnc(N[C@H]3CCCNC3)nc21` [Compound 19, (S)—N-(2,6-Difluoro-3-(8-isopropyl-7-oxo-2-(piperidin-3-ylamino)-7,8-dihydropyrido[2,3-d]pyrimidin-6-yl)phenyl)-1-phenylmethanesulfonamide], the IC50 was found to be 2.2 nM.

As for `CC(C)Nc1ncc2cc(-c3cc(F)c(NS(=O)(=O)Cc4ccccc4)c(F)c3F)c(=O)n(C(C)C)c2n1` [Compound 20, 1-Phenyl-N-(2,3,6-trifluoro-4-(8-isopropyl-2-(isopropylamino)-7-oxo-7,8-dihydropyrido[2,3-d]pyrimidin-6-yl)phenyl)methanesulfonamide], the IC50 was 1.2 nM.

In the case of `CC(C)Nc1ncc2cc(-c3cc(F)c(NS(=O)(=O)CCC(F)(F)F)c(F)c3F)c(=O)n(C(C)C)c2n1` [Compound 21, 3,3,3-Trifluoro-N-(2,3,6-trifluoro-4-(8-isopropyl-2-(isopropylamino)-7-oxo-7,8-dihydropyrido[2,3-d]pyrimidin-6-yl)phenyl)propane-1-sulfonamide], the IC50 amounted to 16 nM.

As for `CC(C)n1c(=O)c(-c2cc(F)c(NS(=O)(=O)Cc3ccccc3)c(F)c2F)cc2cnc(N[C@H]3CC[C@H](N(C)C)CC3)nc21` [Compound 24, N-(4-(2-(((1r,4r)-4-(Dimethylamino)cyclohexyl)amino)-8-isopropyl-7-oxo-7,8-dihydropyrido[2,3-d]pyrimidin-6-yl)-2,3,6-trifluorophenyl)-1-phenylmethanesulfonamide], the IC50 is 2.7 nM.

On to `CC(C)n1c(=O)c(-c2cc(F)c(NS(=O)(=O)CCC(F)(F)F)c(F)c2F)cc2cnc(N[C@H]3CC[C@H](N(C)C)CC3)nc21` [Compound 25, N-(4-(2-(((1r,4r)-4-(Dimethylamino)cyclohexyl)amino)-8-isopropyl-7-oxo-7,8-dihydropyrido[2,3-d]pyrimidin-6-yl)-2,3,6-trifluorophenyl)-3,3,3-trifluoropropane-1-sulfonamide], for which the IC50 was determined as 0.33 nM.

The compound `CC(C)n1c(=O)c(-c2cc(F)c(NS(=O)(=O)Cc3ccccc3)c(F)c2F)cc2cnc(N[C@@H]3CNC[C@@H](F)C3)nc21` [Compound 26, 1-Phenyl-N-(2,3,6-trifluoro-4-(2-(((3S,5S)-5-fluoropiperidin-3-yl)amino)-8-isopropyl-7-oxo-7,8-dihydropyrido[2,3-d]pyrimidin-6-yl)phenyl)methanesulfonamide] displayed an IC50 of 0.19 nM.

In the case of `CC(C)n1c(=O)c(-c2cc(F)c(NS(=O)(=O)Cc3ccccc3)c(F)c2F)cc2cnc(N[C@@H]3CNC[C@@](C)(F)C3)nc21` [Compound 27, 1-Phenyl-N-(2,3,6-trifluoro-4-(2-(((3S,5S)-5-fluoro-5-methylpiperidin-3-yl)amino)-8-isopropyl-7-oxo-7,8-dihydropyrido[2,3-d]pyrimidin-6-yl)phenyl)methanesulfonamide], the IC50 worked out at 0.22 nM.

Consider `O=c1c(-c2cc(F)c(NS(=O)(=O)Cc3ccccc3)c(F)c2F)cc2cnc(N[C@@H]3CNC[C@@H](F)C3)nc2n1C1CCC1` [Compound 28, N-(4-(8-Cyclobutyl-2-(((3S,5S)-5-fluoropiperidin-3-yl)amino)-7-oxo-7,8-dihydropyrido[2,3-d]pyrimidin-6-yl)-2,3,6-trifluorophenyl)-1-phenylmethanesulfonamide], for which the IC50 came to 0.19 nM. The IC50 values of the last two compounds are within 1.5-fold of each other.

Regarding `CC(C)n1c(=O)c(-c2cc(F)c(NS(=O)(=O)Cc3ccc(C#N)cc3)c(F)c2F)cc2cnc(N[C@@H]3CNC[C@@H](F)C3)nc21` [Compound 29, 1-(4-Cyanophenyl)-N-(2,3,6-trifluoro-4-(2-(((3S,5S)-5-fluoropiperidin-3-yl)amino)-8-isopropyl-7-oxo-7,8-dihydropyrido[2,3-d]pyrimidin-6-yl)phenyl)methanesulfonamide], the IC50 was determined as 0.21 nM.

Compound `CC(C)n1c(=O)c(-c2cc(F)c(NS(=O)(=O)Cc3cccc(C#N)c3)c(F)c2F)cc2cnc(N[C@@H]3CNC[C@@H](F)C3)nc21` [Compound 30, 1-(3-Cyanophenyl)-N-(2,3,6-trifluoro-4-(2-(((3S,5S)-5-fluoropiperidin-3-yl)amino)-8-isopropyl-7-oxo-7,8-dihydropyrido[2,3-d]pyrimidin-6-yl)phenyl)methanesulfonamide] returned an IC50 of 0.21 nM.

Compound `COc1cccc(CS(=O)(=O)Nc2c(F)cc(-c3cc4cnc(N[C@@H]5CNC[C@@H](F)C5)nc4n(C(C)C)c3=O)c(F)c2F)c1` [Compound 31, 1-(3-Methoxyphenyl)-N-(2,3,6-trifluoro-4-(2-(((3S,5S)-5-fluoropiperidin-3-yl)amino)-8-isopropyl-7-oxo-7,8-dihydropyrido[2,3-d]pyrimidin-6-yl)phenyl)methanesulfonamide hydrochloride] showed an IC50 of 0.11 nM.

`CC(C)n1c(=O)c(-c2cc(F)c(NS(=O)(=O)Cc3ccccc3C#N)c(F)c2F)cc2cnc(N[C@@H]3CNC[C@@H](F)C3)nc21` [Compound 32, 1-(2-Cyanophenyl)-N-(2,3,6-trifluoro-4-(2-(((3S,5S)-5-fluoropiperidin-3-yl)amino)-8-isopropyl-7-oxo-7,8-dihydropyrido[2,3-d]pyrimidin-6-yl)phenyl)methanesulfonamide] had an IC50 of 0.34 nM. Against the preceding compound, the IC50 is about 3.1-fold higher.

In general, IC50 refers to the concentration at which inhibition is half-maximal. High values mean weaker potency in that assay, low ones greater potency in that assay.
